Data as given in patent US5463062A, “Substituted cyclohexane derivatives, processes for their preparation and the use of the compounds for treating diseases” (Hoechst Aktiengesellschaft, priority 1992, dated 1995).
One block for each compound: values may come before it.

Key:
[1] = target: T1, glucose-6-phosphatase system (Rattus norvegicus, UniProt F7EWB7); assay: enzyme assay of glucose-6-phosphatase activity in liver microsomes (phosphate liberated from glucose-6-phosphate); format: biochemical, male Wistar rats; conditions: for IC50: rat liver microsomes, glucose-6-phosphate 1 mmol/l, pH 7.0, 20 min at room temperature
T1 construct: To prepare the microsomal fraction containing the glucose-6-phosphatase, fresh liver organs from male Wistar rats were used; from tissue; host or cells: liver of male Wistar rats, microsomal fraction
T1 sequence (F7EWB7 1-429): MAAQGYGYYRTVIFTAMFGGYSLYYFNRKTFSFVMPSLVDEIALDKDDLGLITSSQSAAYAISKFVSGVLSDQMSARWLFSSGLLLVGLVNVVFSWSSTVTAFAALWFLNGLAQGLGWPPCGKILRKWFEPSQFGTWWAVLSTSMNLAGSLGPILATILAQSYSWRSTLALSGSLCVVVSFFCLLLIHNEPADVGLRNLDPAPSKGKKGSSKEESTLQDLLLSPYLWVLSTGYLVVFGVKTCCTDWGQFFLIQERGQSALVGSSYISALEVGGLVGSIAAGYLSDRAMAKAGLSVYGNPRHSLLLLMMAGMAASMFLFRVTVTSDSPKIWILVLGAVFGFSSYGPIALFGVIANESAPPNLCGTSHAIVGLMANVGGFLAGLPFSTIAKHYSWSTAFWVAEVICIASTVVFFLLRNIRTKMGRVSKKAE
Protocol: The effect of the compounds according to the invention on the glucose-6-phosphatase system has been investigated in an enzyme assay in liver microsomes.
To prepare the microsomal fraction containing the glucose-6-phosphatase, fresh liver organs from male Wistar rats were used and processed as described in the literature [Canfield, W. K. and Arion, W. J., J. Biol. Chem. 263, 7458-7460, (1988)]. This microsomal fraction can be stored at -70° C. without significant loss of activity for at least 2 months. The glucose-6-phosphatase activity was detected as indicated in the literature [Arion, W. J. in Methods Enzymol. 174, Academic Press 1989, pages 58-67) by determining the phosphate liberated from glucose-6-phosphate. 0.1 ml of assay mixture contained glucose-6-phosphate(1 mmol/l), the test substance, 0.1 mg of microsomal fraction and 100 mmol/l HEPES buffer (4-(2-hydroxyethyl)piperazine-1-ethanesulfonic acid), pH 7.0. The reaction was started by adding the enzyme. After 20 min at room temperature, the reaction was stopped by adding 0.2 ml of phosphate reagent. The sample was incubated at 37° C. for 30 min, and the absorption (A) of the blue color was subsequently measured at 570 nm. The inhibitory activity of the test substance was found by comparison with a control reaction which contained no test substance, using the formula [formula]
Where necessary, the inhibitory effect of the test substance was determined as a function of the test substance concentration employed, and from this the concentration for 50% inhibition of enzyme activity (IC50) was calculated.
The IC50 was determined for the compounds listed hereinafter: […]

glucose-6-phosphatase = conditions: in words, literature; cited from earlier work

Structure (SMILES): O=C(CCC1CCCCC1)O[C@@H]1C[C@](OCCCc2ccc(Cl)cc2)(C(=O)O)C[C@@H](O)[C@H]1O [Example 120]
IC50 ([1]; TABLE): 0.69 µM

Structure (SMILES): O=C(CC(C1CCCCC1)n1ccnc1)O[C@@H]1C[C@](OCCCc2ccc(Cl)cc2)(C(=O)O)C[C@@H](O)[C@H]1O (some centres unmarked) [Example 69]
IC50 ([1]; TABLE): 170 µM

Structure (SMILES): C=Cc1ccc(C(=O)O[C@@H]2C[C@](OCCCc3ccc(Cl)cc3)(C(=O)O)C[C@@H](O)[C@H]2O)cc1 [Example 118]
IC50 ([1]; TABLE): 1.3 µM

Structure (SMILES): O=C(O)c1cc(SSc2ccc([N+](=O)[O-])c(C(=O)O)c2)ccc1[N+](=O)[O-] [5,5'-dithiobis-2-nitrobenzoic acid]
inhibition of glucose-6-phosphatase (glucose-6-phosphatase): non-specific inhibitors of glucose-6-phosphatase

Structure (SMILES): O=C(O[C@@H]1C[C@](OCCCc2ccc(Cl)cc2)(C(=O)O)C[C@@H](O)[C@H]1O)c1snnc1-c1ccccc1 [Example 116]
IC50 ([1]; TABLE): 4.5 µM

Structure (SMILES): CC(C)CCC(=O)O[C@@H]1C[C@](OCCCc2ccc(Cl)cc2)(C(=O)O)C[C@@H](O)[C@H]1O [Example 117]
IC50 ([1]; TABLE): 41 µM

Structure (SMILES): S=C=Nc1ccccc1C=Cc1ccccc1N=C=S [2,2'-diisothiocyanatostilbene]
inhibition of glucose-6-phosphatase (glucose-6-phosphatase): non-specific inhibitors of glucose-6-phosphatase

Structure (SMILES): O=C(/C=C/c1ccc(O)cc1)O[C@@H]1C[C@](OCc2cccc3ccccc23)(C(=O)O)C[C@H](O)[C@H]1O [Example 14, [1S,3R,4R,5S]-1-(1-naphthylmethyl)oxy-3-[(E)-3-(4-hydroxyphenyl)-2-propenoyl]oxy-4,5-dihydroxycyclohexanecarboxylic acid]
inhibition of the glucose-6-phosphatase system ([1]; in words): inhibitors of the glucose-6phosphatase system

Structure (SMILES): O=C(COc1ccccc1)O[C@@H]1C[C@](OCCCc2ccc(Cl)cc2)(C(=O)O)C[C@@H](O)[C@H]1O [Example 119]
IC50 ([1]; TABLE): 12 µM

Structure (SMILES): CC(=O)Oc1ccccc1C=Cc1ccccc1N=C=S [2-isothiocyanato-2'-acetoxystilbene]
inhibition of glucose-6-phosphatase (glucose-6-phosphatase): non-specific inhibitors of glucose-6-phosphatase

Structure (SMILES): O=C(CCC1CCCCC1)O[C@@H]1C[C@](OCC2CC2c2ccc(Cl)cc2)(C(=O)O)C[C@@H](O)[C@H]1O (some centres unmarked) [Example 113]
IC50 ([1]; TABLE): 3.7 µM

Structure (SMILES): O=C(CCCCC1CCCCC1)O[C@@H]1C[C@](OCCCc2ccc(Cl)cc2)(C(=O)O)C[C@@H](O)[C@H]1O [Example 114]
IC50 ([1]; TABLE): 5 µM

Structure (SMILES): O=C(CCc1ccc(O)cc1)c1c(O)cc(O)cc1O[C@@H]1O[C@H](CO)[C@@H](O)[C@H](O)[C@H]1O [phlorrhizin]
inhibition of glucose-6-phosphatase (glucose-6-phosphatase): non-specific inhibitors of glucose-6-phosphatase

Structure (SMILES): O=C(O[C@@H]1C[C@](OCCCc2ccc(Cl)cc2)(C(=O)O)C[C@@H](O)[C@H]1O)C1CCCCC1 [Example 115]
IC50 ([1]; TABLE): 8.9 µM

Next, values leading:

IC50 [1]: 190 µM
Structure (SMILES): O=C(/C=C/c1ccc(O)cc1)O[C@@H]1C[C@](OCc2ccccc2)(C(=O)O)C[C@H](O)[C@H]1O [Example 1, [1S,3R,4R,5S]-3-[(E)-3-(4-hydroxyphenyl)propenoyl]oxy-4,5-dihydroxy-1-phenylmethyloxy-cyclohexanecarboxylic acid]

IC50 [1]: 26 µM
Structure (SMILES): O=C(O[C@@H]1C[C@](OCCCc2ccc(Cl)cc2)(C(=O)O)C[C@H](O)[C@H]1O)c1ccccn1 [Example 4, [1S,3R,4R,5S]-1-(4-chlorophenylpropyl)oxy-4,5-dihydroxy-3-(2-pyridinecarbonyl)oxycyclohexanecarboxylic acid]

IC50 ([1]; unit printed as "82 M"): 230 µM
Structure (SMILES): CCCO[C@@]1(C(=O)O)C[C@H](O)[C@@H](O)[C@H](OC(=O)/C=C/c2ccc(O)cc2)C1 [Example 8, [1S,3R,4R,5S]-3-[(E)-3-(4-hydroxyphenyl)-2-propenoyl]oxy-4,5-dihydroxy-1-propyloxycyclohexanecarboxylic acid]

IC50 [1]: 9.3 µM
Structure (SMILES): O=C(CCc1ccc(O)cc1)O[C@@H]1C[C@](OCCCc2ccc(Cl)cc2)(C(=O)O)C[C@@H](O)[C@H]1O [Example 44, [1S,3R,4R,5S]-1-(4-chlorophenylpropyl)oxy-3-[(E)-3-(4-hydroxyphenyl)propoyl]oxy-4,5-dihydroxycyclohexanecarboxylic acid]

IC50 [1]: 560 µM
Structure (SMILES): C#CCO[C@@]1(C(=O)O)C[C@H](O)[C@@H](O)[C@H](OC(=O)/C=C/c2ccc(O)cc2)C1 [Example 3, [1S,3R,4R,5S]-3-[(E)-3-(4-hydroxyphenyl)-2-propenoyl]oxy-4,5-dihydroxy-1-(2-propynyl)oxycyclohexanecarboxylic acid]

IC50 [1]: 110 µM
Structure (SMILES): O=C(/C=C/c1ccc(O)cc1)O[C@@H]1C[C@](OCc2cccs2)(C(=O)O)C[C@H](O)[C@H]1O [Example 2, [1S,3R,4R,5S]-3-[(E)-3-(4-hydroxyphenyl)-2-propenoyl]oxy-4,5-dihydroxy-1-(2-thienylmethyl)oxycyclohexanecarboxylic acid]
